# Results: ChEMBL document CHEMBL4396913, “Synthesis and biological evaluation of hybrid quinolone-based quaternary ammonium antibacterial agents” (Eur J Med Chem, 2019)
# Active and inactive are the calls of the source. The rule behind the calls is not given here.
# Key:
# Proteus vulgaris [1] = experiment: Bactericidal activity against Proteus vulgaris NCTC 4635 cultured in MH medium assessed as reduction in bacterial survival incubated for 48 hrs by microbroth dilution method; assay type: functional; conditions: NCTC 4635, 48 h
# Streptococcus pneumoniae [2] = experiment: Antibacterial activity against Streptococcus pneumoniae cultured in MH medium assessed as reduction in bacterial growth incubated for 48 hrs by microbroth dilution method; assay type: functional
# Serratia marcescens [3] = experiment: Bactericidal activity against Serratia marcescens ATCC 12795 cultured in MH medium assessed as reduction in bacterial survival incubated for 48 hrs by microbroth dilution method; assay type: functional; conditions: ATCC 12795, 48 h
# Pseudomonas aeruginosa [4] = experiment: Bactericidal activity against Pseudomonas aeruginosa ATCC 9027 cultured in MH medium assessed as reduction in bacterial survival incubated for 48 hrs by microbroth dilution method; assay type: functional; conditions: ATCC 9027, 48 h
# Staphylococcus aureus [5] = experiment: Bactericidal activity against methicillin resistant Staphylococcus aureus N315 cultured in MH medium assessed as reduction in bacterial survival incubated for 48 hrs by microbroth dilution method; assay type: functional; conditions: N315, 48 h
# [6] = Lipophilicity, log k of the compound at 100 ug/ml by micellar electrokinetic chromatography; assay type: physicochemical
# HEK293 [7] = experiment: Cytotoxicity against human HEK293 cells assessed as changes in cell morphology upto 20 uM incubated for 72 hrs by MTT assay; assay type: cell-based; conditions: hek293, 72 h
# Proteus vulgaris [8] = experiment: Antibacterial activity against Proteus vulgaris NCTC 4635 cultured in MH medium assessed as reduction in bacterial growth incubated for 48 hrs by microbroth dilution method; assay type: functional; conditions: NCTC 4635, 48 h
# [9] = biological target: T1, DNA gyrase (Escherichia coli) (UniProt P0AES6+P0AES4); experiment: Inhibition of Escherichia coli DNA gyrase super-coiling activity using relaxed pNO1 DNA as substrate assessed as enzyme residual activity at 1 uM incubated for 30 mins by fluorescence assay relative to control; assay type: protein-complex assay
# Staphylococcus aureus [10] = experiment: Antibacterial activity against Staphylococcus aureus ATCC 6538 cultured in MH medium assessed as reduction in bacterial growth incubated for 48 hrs by microbroth dilution method; assay type: functional; conditions: ATCC 6538, 48 h
# Staphylococcus aureus [11] = experiment: Antibacterial activity against methicillin resistant Staphylococcus aureus N315 cultured in MH medium assessed as reduction in bacterial growth incubated for 48 hrs by microbroth dilution method; assay type: functional; conditions: N315, 48 h
# Bacillus spizizenii [12] = experiment: Bactericidal activity against Bacillus subtilis ATCC 6633 cultured in MH medium assessed as reduction in bacterial survival incubated for 48 hrs by microbroth dilution method; assay type: functional; conditions: ATCC 6633, 48 h
# Escherichia coli [13] = experiment: Antibacterial activity against Escherichia coli ATCC 8739 cultured in MH medium assessed as reduction in bacterial growth incubated for 48 hrs by microbroth dilution method; assay type: functional; conditions: ATCC 8739, 48 h
# Bacillus spizizenii [14] = experiment: Antibacterial activity against Bacillus subtilis ATCC 6633 cultured in MH medium assessed as reduction in bacterial growth incubated for 48 hrs by microbroth dilution method; assay type: functional; conditions: ATCC 6633, 48 h
# Staphylococcus aureus [15] = experiment: Bactericidal activity against methicillin resistant Staphylococcus aureus 6347 cultured in MH medium assessed as reduction in bacterial survival incubated for 48 hrs by microbroth dilution method; assay type: functional; conditions: Staphylococcus aureus, 6347, 48 h
# Staphylococcus aureus [16] = experiment: Bactericidal activity against Staphylococcus aureus ATCC 6538 cultured in MH medium assessed as reduction in bacterial survival incubated for 48 hrs by microbroth dilution method; assay type: functional; conditions: ATCC 6538, 48 h
# Staphylococcus aureus [17] = experiment: Antibacterial activity against methicillin resistant Staphylococcus aureus 6347 cultured in MH medium assessed as reduction in bacterial growth incubated for 48 hrs by microbroth dilution method; assay type: functional; conditions: Staphylococcus aureus, 6347, 48 h
# Serratia marcescens [18] = experiment: Antibacterial activity against Serratia marcescens ATCC 12795 cultured in MH medium assessed as reduction in bacterial growth incubated for 48 hrs by microbroth dilution method; assay type: functional; conditions: ATCC 12795, 48 h
# HEK293 [19] = experiment: Cytotoxicity against human HEK293 cells assessed as cell viability upto 20 uM incubated for 72 hrs by MTT assay; assay type: cell-based; conditions: hek293, 72 h
# Enterococcus hirae [20] = experiment: Antibacterial activity against Enterococcus hirae ATCC 1052 cultured in BHI medium assessed as reduction in bacterial growth incubated for 48 hrs by microbroth dilution method; assay type: functional; conditions: ATCC 1052, 48 h
# Escherichia coli [21] = experiment: Bactericidal activity against Escherichia coli ATCC 8739 cultured in MH medium assessed as reduction in bacterial survival incubated for 48 hrs by microbroth dilution method; assay type: functional; conditions: ATCC 8739, 48 h
# [22] = biological target: T1, DNA gyrase (Escherichia coli); experiment: Inhibition of Escherichia coli DNA gyrase super-coiling activity using relaxed pNO1 DNA as substrate assessed as enzyme residual activity at 10 uM incubated for 30 mins by fluorescence assay relative to control; assay type: protein-complex assay
# [23] = test system: Staphylococcus epidermidis; experiment: Antibacterial activity against Staphylococcus epidermidis ATCC 14990 cultured in MH medium assessed as reduction in bacterial growth incubated for 48 hrs by microbroth dilution method; assay type: functional; conditions: ATCC 14990, 48 h
# [24] = test system: Staphylococcus epidermidis; experiment: Bactericidal activity against Staphylococcus epidermidis ATCC 14990 cultured in MH medium assessed as reduction in bacterial survival incubated for 48 hrs by microbroth dilution method; assay type: functional; conditions: ATCC 14990, 48 h
# [25] = test system: Staphylococcus epidermidis; experiment: Antibacterial activity against methicillin resistant Staphylococcus epidermidis ATCC 13199 cultured in MH medium assessed as reduction in bacterial growth incubated for 48 hrs by microbroth dilution method; assay type: functional; conditions: ATCC 13199, 48 h
# [26] = test system: Staphylococcus epidermidis; experiment: Bactericidal activity against methicillin resistant Staphylococcus epidermidis ATCC 13199 cultured in MH medium assessed as reduction in bacterial survival incubated for 48 hrs by microbroth dilution method; assay type: functional; conditions: ATCC 13199, 48 h
# Pseudomonas aeruginosa [27] = experiment: Antibacterial activity against Pseudomonas aeruginosa ATCC 9027 cultured in MH medium assessed as reduction in bacterial growth incubated for 48 hrs by microbroth dilution method; assay type: functional; conditions: ATCC 9027, 48 h
# Pseudomonas aeruginosa [28] = experiment: Biofilm degradation activity against Pseudomonas aeruginosa ATCC 9027 assessed as biofilm formation at 4 times antibacterial MIC incubated for 24 hrs compound added post-biofilm formation by total biomass crystal violet staining-based method; assay type: functional
# Pseudomonas aeruginosa [29] = experiment: Biofilm degradation activity against Pseudomonas aeruginosa ATCC 9027 assessed as biofilm formation at antibacterial MIC incubated for 24 hrs compound added post-biofilm formation by total biomass crystal violet staining-based method; assay type: functional
# Staphylococcus aureus [30] = experiment: Antibiofilm activity against Staphylococcus aureus ATCC 6538 assessed as biofilm formation at 0.5 times antibacterial MIC incubated for 24 hrs compound added prior to bacterial biofilm formation by total biomass crystal violet staining-based method relative to control; assay type: functional
# Pseudomonas aeruginosa [31] = experiment: Biofilm degradation activity against Pseudomonas aeruginosa ATCC 9027 assessed as biofilm formation at 2 times antibacterial MIC incubated for 24 hrs compound added post-biofilm formation by total biomass crystal violet staining-based method; assay type: functional
# Staphylococcus aureus [32] = experiment: Biofilm degradation activity against Staphylococcus aureus ATCC 6538 assessed as biofilm formation at 4 times antibacterial MIC incubated for 24 hrs compound added post-biofilm formation by total biomass crystal violet staining-based method; assay type: functional
# Pseudomonas aeruginosa [33] = experiment: Antibiofilm activity against Pseudomonas aeruginosa ATCC 9027 assessed as biofilm formation at 0.5 times antibacterial MIC incubated for 24 hrs compound added prior to bacterial biofilm formation by total biomass crystal violet staining-based method relative to control; assay type: functional
# Streptococcus pneumoniae [34] = experiment: Bactericidal activity against Streptococcus pneumoniae cultured in MH medium assessed as reduction in bacterial survival incubated for 48 hrs by microbroth dilution method; assay type: functional
# Staphylococcus aureus [35] = experiment: Antibiofilm activity against Staphylococcus aureus ATCC 6538 assessed as biofilm formation at antibacterial MIC incubated for 24 hrs compound added prior to bacterial biofilm formation by total biomass crystal violet staining-based method relative to control; assay type: functional
# Pseudomonas aeruginosa [36] = experiment: Antibiofilm activity against Pseudomonas aeruginosa ATCC 9027 assessed as biofilm formation at antibacterial MIC incubated for 24 hrs compound added prior to bacterial biofilm formation by total biomass crystal violet staining-based method relative to control; assay type: functional
# Staphylococcus aureus [37] = experiment: Biofilm degradation activity against Staphylococcus aureus ATCC 6538 assessed as biofilm formation at 2 times antibacterial MIC incubated for 24 hrs compound added post-biofilm formation by total biomass crystal violet staining-based method; assay type: functional
# Enterococcus hirae [38] = experiment: Bactericidal activity against Enterococcus hirae ATCC 1052 cultured in BHI medium assessed as reduction in bacterial survival incubated for 48 hrs by microbroth dilution method; assay type: functional; conditions: ATCC 1052, 48 h
# Staphylococcus aureus [39] = experiment: Biofilm degradation activity against Staphylococcus aureus ATCC 6538 assessed as biofilm formation at antibacterial MIC incubated for 24 hrs compound added post-biofilm formation by total biomass crystal violet staining-based method; assay type: functional
# Staphylococcus aureus [40] = conditions: ATCC 25923, 10 to 40 uM
# Description: Antibiofilm activity Staphylococcus aureus ATCC 25923 pre-formed mature biofilm assessed as reduction in biofilm viability at 10 to 40 uM incubated for 24 hrs compound added post-biofilm formation by resazurin staining based assay relative to control
# Escherichia coli [41] = experiment: Induction of inner membrane permeabilization in Escherichia coli ATCC 8739 assessed as increase in release of cytoplasmic beta galactosidase using ONPG as substrate at 128 ug/ml incubated for 90 mins compound added with bacterial cells after lag time of about 10 mins by spectrophotometry; assay type: organism-based
# Staphylococcus aureus [42] = conditions: ATCC 25923, 10 to 40 uM; remark: listed apart in the source
# Description: Antibiofilm activity Staphylococcus aureus ATCC 25923 pre-formed mature biofilm assessed as reduction in biofilm biomass at 10 to 40 uM incubated for 24 hrs compound added post biofilm formation by crystal violet staining based assay relative to control
SMILES,MBC (Proteus vulgaris [1]) [µg/mL],MIC (Streptococcus pneumoniae [2]) [µg/mL],MBC (Serratia marcescens [3]) [µg/mL],MBC (Pseudomonas aeruginosa [4]) [µg/mL],MBC (Staphylococcus aureus [5]) [µg/mL],log K [6],MIC (Proteus vulgaris [8]) [µg/mL],MIC (Staphylococcus aureus [10]) [µg/mL],MIC (Staphylococcus aureus [11]) [µg/mL],MBC (Bacillus spizizenii [12]) [µg/mL],MIC (Escherichia coli [13]) [µg/mL],MIC (Bacillus spizizenii [14]) [µg/mL],MBC (Staphylococcus aureus [15]) [µg/mL],MBC (Staphylococcus aureus [16]) [µg/mL],MIC (Staphylococcus aureus [17]) [µg/mL],MIC (Serratia marcescens [18]) [µg/mL],MIC (Enterococcus hirae [20]) [µg/mL],MBC (Escherichia coli [21]) [µg/mL],MIC [23] [µg/mL],MBC [24] [µg/mL],other results
C[C@@H]1CN(c2c(F)c(N)c3c(=O)c(C(=O)O)cn(C4CC4)c3c2F)C[C@H](C)[N+]12CN1C(=N2)C(C(=O)O)=Cc2ccccc21.[Cl-] (stereo partly specified),2,> 512,64,64,128,-0.07,2,8,32,4,4,4,32,8,32,64,> 512,4,8,8,Activity (HEK293 [7]): Non-Toxic; Activity [9]: 73%; Activity (HEK293 [19]): Non-Toxic; Activity [22]: 35%; MIC [25]: 16 µg/mL; MBC [26]: 32 µg/mL; MIC (Pseudomonas aeruginosa [27]): 64 µg/mL
CCn1cc(C(=O)O)c(=O)c2cc(F)c(N3CCNCC3)nc21 [ENOXACIN],0.063,32,0.25,0.5,1,0.1564,0.032,1,1,0.125,0.25,0.125,1,1,0.5,0.25,64,0.5,0.5,2,Activity (Pseudomonas aeruginosa [28]): 49%; Activity (Pseudomonas aeruginosa [29]): 46%; Activity (Staphylococcus aureus [30]): 27%; Activity (Pseudomonas aeruginosa [31]): 49%; Activity (Staphylococcus aureus [32]): 8%; Activity (Pseudomonas aeruginosa [33]): 27%; MBC (Streptococcus pneumoniae [34]): > 512 µg/mL; Activity (Staphylococcus aureus [35]): 29%; Activity (Pseudomonas aeruginosa [36]): 7%; Activity (Staphylococcus aureus [37]): 28%; MIC [25]: 0.25 µg/mL; MBC [26]: 0.25 µg/mL; MIC (Pseudomonas aeruginosa [27]): 0.5 µg/mL; MBC (Enterococcus hirae [38]): 64 µg/mL; Activity (Staphylococcus aureus [39]): 45%
CCn1cc(C(=O)O)c(=O)c2cc(F)c(N3CCNC(C)C3)c(F)c21 (stereo unspecified) [LOMEFLOXACIN],0.008,16,0.5,1,1,0.0766,0.008,1,0.5,0.125,0.063,0.125,1,1,0.5,0.5,128,0.125,1,2,Activity (Pseudomonas aeruginosa [28]): 34%; Activity (Pseudomonas aeruginosa [29]): 40%; Activity (Staphylococcus aureus [30]): 63%; Activity (Pseudomonas aeruginosa [31]): 36%; Activity (Staphylococcus aureus [32]): 6%; Activity (Pseudomonas aeruginosa [33]): 6%; MBC (Streptococcus pneumoniae [34]): > 512 µg/mL; Activity (Staphylococcus aureus [35]): 9%; Activity (Pseudomonas aeruginosa [36]): 2%; Activity (Staphylococcus aureus [37]): 12%; MIC [25]: 0.25 µg/mL; MBC [26]: 0.25 µg/mL; MIC (Pseudomonas aeruginosa [27]): 1 µg/mL; MBC (Enterococcus hirae [38]): 128 µg/mL; Activity (Staphylococcus aureus [39]): 58%
O=C(O)c1cn(C2CC2)c2cc(N3CCNCC3)c(F)cc2c1=O [CIPROFLOXACIN],0.008,8,0.125,0.5,,,0.008,0.25,1,0.063,0.032,0.032,0.5,0.5,0.25,0.125,128,0.032,0.25,0.25,Activity (Pseudomonas aeruginosa [28]): 64%; Activity (Pseudomonas aeruginosa [29]): 76%; Activity [9]: 7%; Activity (Staphylococcus aureus [30]): 5%; Activity (Pseudomonas aeruginosa [31]): 72%; inhibition (Staphylococcus aureus [40]): Active; Activity (Staphylococcus aureus [32]): 31%; Activity (Pseudomonas aeruginosa [33]): 7%; Activity (Escherichia coli [41]): Active; MBC (Streptococcus pneumoniae [34]): > 512 µg/mL; Activity (Staphylococcus aureus [35]): 3%; inhibition (Staphylococcus aureus [42]): Active; Activity (Pseudomonas aeruginosa [36]): 3%; Activity (Staphylococcus aureus [37]): 17%; MBC (Enterococcus hirae [38]): 128 µg/mL; Activity (Staphylococcus aureus [39]): 21%
